In the Deep4Chem optical property database:
“And” between values parts separate entries of the source, which are not always exact repeats. Identical values can stand only once.

Test: solvent given as SMILES

CN(C)c1ccc(C2=CC3=C(c4ccc(C=C(C#N)C#N)cc4)[C@H]4c5ccccc5[C@]3(S2)c2ccccc24)cc1
absorption maximum (in ClCCl): 543 nm

C(=C\c1ccnc2ccccc12)/c1ccc(/C=C/c2ccnc3ccccc23)cc1
absorption maximum (in C1CCCCC1): 364 nm | absorption maximum (in C1COCCO1): 370 nm | absorption maximum (in CC#N): 370 nm | absorption maximum (in CC(C)=O): 371 nm | absorption maximum (in CC(C)O): 374 nm | absorption maximum (in CCCO): 374 nm | absorption maximum (in CCO): 374 nm | absorption maximum (in CN(C)C=O): 378 nm | absorption maximum (in CO): 374 nm | absorption maximum (in CS(C)=O): 382 nm | absorption maximum (in ClC(Cl)Cl): 370 nm | absorption maximum (in ClCCl): 370 nm | absorption maximum (in OCCO): 382 nm

COc1cccc(OC)c1-c1c2ccc(=[N+]3CCCCC3)cc-2oc2cc(N3CCCCC3)ccc12
absorption maximum (in ClCCl): 565 nm

COc1ccc2cc(/C=C/C3=C4CCc5ccccc5C4=[O+][B-](F)(F)O3)ccc2c1
absorption maximum (in ClCCl): 479 nm

Cc1cc(C)c(C2=C3C=C(/C=C/C(=O)OC(C)(C)C)C=[N+]3[B-](F)(F)n3cccc32)c(C)c1
absorption maximum (in ClCCl): 538 nm

O=C1CC(=O)Nc2cc(C(=O)O)ccc2N1
absorption maximum (in CS(C)=O): 304 nm

CC(C)[Si]1(C(C)C)c2cc(C=C(C#N)C#N)ccc2-c2ccc(N(C)C)cc21
absorption maximum (in C1CCCCC1): 480 nm | absorption maximum (in CC#N): 475 nm | absorption maximum (in CCO): 478 nm | absorption maximum (in CCOCC): 469 nm | absorption maximum (in CS(C)=O): 488 nm | absorption maximum (in ClCCl): 489 nm | absorption maximum (in c1ccccc1): 480 nm

Cc1ccccc1-c1ccccc1C
absorption maximum (in C1CCCCC1): 260.08 nm

O=S(=O)([O-])CCCCN1C=C/C(=C/C=C/C=C/c2cc[n+](CCCCS(=O)(=O)[O-])c3ccccc23)c2ccccc21
absorption maximum (in CO): 815 nm

COc1ccc(C2=C(c3ccc(OC)cc3)c3cccc4c5c(cc(c34)O2)=NC2C=C(Br)C(Br)=CC2N=5)cc1 (stereo not drawn)
absorption maximum (in ClCCl): 526 nm

CCCCN(CCCC)c1ccc(/C=C/c2ccc(-c3ccc(/C=C/c4ccc(N(CCCC)CCCC)cc4)cc3)cc2)cc1
absorption maximum (in CS(C)=O): 412.9 nm | absorption maximum (in Cc1ccccc1): 399.3 nm

Cc1cc(C)c(B(c2cc(-c3c(C)cc(C)cc3C)sc2-c2sc(-c3c(C)cc(C)cc3C)cc2P(=O)(c2ccccc2)c2ccccc2)c2c(C)cc(C)cc2C)c(C)c1
absorption maximum (in CO): 370 nm

CCCCCCCCC1(CCCCCCCC)c2cc(C#Cc3ccc(N(c4ccccc4)c4ccccc4)cc3)ccc2-c2ccc(C=O)cc21
absorption maximum (in C1CCOC1): 378 nm | absorption maximum (in C1COCCO1): 381 nm | absorption maximum (in CC#N): 378 nm | absorption maximum (in CC(C)=O): 373 nm | absorption maximum (in CCOC(C)=O): 376 nm | absorption maximum (in CN(C)C=O): 380 nm | absorption maximum (in CS(C)=O): 381 nm | absorption maximum (in Cc1ccccc1): 388 nm | absorption maximum (in ClC(Cl)Cl): 386 nm | absorption maximum (in ClCCl): 384 nm

O=C1Nc2ccccc2/C1=C/C(=O)c1ccc([N+](=O)[O-])cc1
absorption maximum (in C1CCCCC1): 341 nm | absorption maximum (in C1COCCO1): 343 nm | absorption maximum (in CC#N): 341 nm | absorption maximum (in CC(C)(C)O): 347 nm | absorption maximum (in CC(C)O): 345 nm | absorption maximum (in CCCCCC): 340 nm | absorption maximum (in CCCCO): 346 nm | absorption maximum (in CCOC(C)=O): 342 nm | absorption maximum (in CN(C)C=O): 344 nm | absorption maximum (in CO): 346 nm | absorption maximum (in ClCCl): 344 nm

c1ccc(N(c2ccccc2)c2ccc(-c3ccc4c(c3)C3(c5ccccc5Sc5ccccc53)c3cc(-c5ccc(N(c6ccccc6)c6ccccc6)cc5)ccc3-4)cc2)cc1
absorption maximum (in ClCCl): 375 nm

C[Si]1(C)O[Si](C)(C)c2cc3c(-c4ccccc4)c4cc(Cl)ccc4nc3cc21
absorption maximum (in ClCCl): 376 nm

CC[n+]1c(-c2ccccc2)c2cc(NC(N)=[NH2+])ccc2c2ccc(NC(N)=[NH2+])cc21
absorption maximum (in O): 397 nm

c1ccc(-n2c(-c3ccccc3-n3c4ccccc4c4ccccc43)nc3ccccc32)cc1
absorption maximum (in C1CCOC1): 352 nm

CCCCCCCCCCCCN1C(=O)c2c(c3ccc4cc(-c5ccc(C)cc5)c(OC)cc4c3c3c2ccc2cc(-c4ccc(C)cc4)c(OC)cc23)C1=O
absorption maximum (in ClCCl): 436 nm

COC(=O)c1c(C(=O)OC)c2ccc(-c3ccccc3)nn2c1C
absorption maximum (in C1CCCCC1): 397.6 nm

N#CC(C#N)=Cc1ccc(-c2ccc(O)c(-c3nc4ccccc4s3)c2)s1
absorption maximum (in ClCCl): 427 nm | absorption maximum (in O): 416 nm

CN(CC(O)c1cccc(O)c1)c1ccc([N+](=O)[O-])c(C2CC(c3cccc4ccccc34)=NN2c2ccccc2)c1 (stereo not drawn)
absorption maximum (in C1CCCCC1): 400 nm | absorption maximum (in C1CCOC1): 411 nm | absorption maximum (in C1COCCO1): 396 nm | absorption maximum (in CC#N): 402 nm | absorption maximum (in CC(C)O): 412 nm | absorption maximum (in CCOC(C)=O): 418 nm | absorption maximum (in CCOCC): 405 nm | absorption maximum (in CO): 409 nm | absorption maximum (in Cc1ccccc1): 414 nm | absorption maximum (in ClC(Cl)Cl): 369 nm | absorption maximum (in O): 406 nm

CCCC1(CCC)c2ccccc2-c2ccc(-c3ccc4c(c3)C(CCC)(CCC)c3cc(-c5ccc6c(c5)C(CCC)(CCC)c5cc(-c7ccc8c(c7)C(CCC)(CCC)c7ccccc7-8)ccc5-6)ccc3-4)cc21
absorption maximum (in C1CCCCC1): 360 nm

O=C([O-])c1c(Cl)c(Cl)c(Cl)c(Cl)c1-c1c2cc(I)c(=O)c(I)c-2oc2c(I)c([O-])c(I)cc12
absorption maximum (in CC(C)O): 561 nm | absorption maximum (in CCO): 558 nm | absorption maximum (in CO): 556 nm | absorption maximum (in O): 548 nm

Cc1cc(C)c(C2=C3C=C(c4ccc(C(C)(C)C)cc4)C(c4ccc(C(C)(C)C)cc4)=[N+]3[B-](F)(F)n3c2cc(-c2ccc(C(C)(C)C)cc2)c3-c2ccc(C(C)(C)C)cc2)c(C)c1
absorption maximum (in C1CCCCC1): 602 nm | absorption maximum (in C1CCOC1): 602 nm | absorption maximum (in CC#N): 592 nm | absorption maximum (in Cc1ccccc1): 606 nm | absorption maximum (in ClCCl): 599 nm

Cc1ccc(-n2c(-c3ccccc3[NH-])[nH+]c3c4ccccc4c4ccccc4c32)cc1
absorption maximum (in Cc1ccccc1): 363 nm

CON(C)C(=O)c1ccc(/C=C/c2ccc(/C=C/c3ccc(C(=O)N(C)OC)cc3)cc2)cc1
absorption maximum (in c1ccccc1): 368 nm

N#Cc1ccc(Oc2ccc3c4c(cccc24)C(=O)N(CCO)C3=O)cc1
absorption maximum (in ClC(Cl)Cl): 352 nm

Nc1ccc2ccc(O)cc2c1
absorption maximum (in O): 332 nm

BrCCCCCCCCCCCCOc1cc2ccc3cccc4ccc(c1)c2c34
absorption maximum (in Cc1ccccc1): 384 nm

N#Cc1c(N2CCCCC2)cc(-c2ccc3ccc4cccc5ccc2c3c45)c2c1Cc1ccccc1-2
absorption maximum (in C1CCOC1): 344 nm

CCCCC1(c2ccccc2)Nc2ccccc2N=C1c1ccccc1 (stereo not drawn)
absorption maximum (in ClC(Cl)Cl): 386 nm

CC1=[N+]2C(=C(c3ccc(N4CCOCC4)cc3)c3ccc(C)n3[B-]2(F)F)C=C1
absorption maximum (in C1CCCCC1): 509 nm | absorption maximum (in C1CCOC1): 507 nm | absorption maximum (in CC#N): 504 nm and 505 nm | absorption maximum (in CC(=O)C(C)(C)C): 506 nm | absorption maximum (in CC(C)=O): 505 nm | absorption maximum (in CCCCCC): 508 nm | absorption maximum (in CCOC(C)=O): 506 nm | absorption maximum (in CO): 505 nm | absorption maximum (in Cc1ccccc1): 511 nm | absorption maximum (in ClC(Cl)Cl): 511 nm

COc1cc2cc(/C=C/c3ccc(/C=C(\C#N)C(=O)O)cc3)c(=O)oc2cc1OC
absorption maximum (in CC#N): 400 nm

COC(=O)CNC(=O)CCNc1cccc2ccccc12
absorption maximum (in CCO): 330 nm

COc1ccc2nc(/N=N/c3ccc(N(C)C)cc3)sc2c1
absorption maximum (in CC#N): 506 nm | absorption maximum (in ClCCl): 506 nm

CCN(CC)c1ccc(/N=N/c2nc3ccc(Br)cc3s2)cc1
absorption maximum (in CC#N): 520 nm | absorption maximum (in ClCCl): 518 nm

CCOC(=O)/C(C#N)=C/c1cc2c3ccccc3n(C)c2cc1OC
absorption maximum (in C1CCOC1): 407 nm | absorption maximum (in CC#N): 410 nm | absorption maximum (in CCOC(C)=O): 406 nm | absorption maximum (in CN(C)C=O): 417 nm | absorption maximum (in CO): 415 nm | absorption maximum (in CS(C)=O): 419 nm | absorption maximum (in Cc1ccccc1): 407 nm | absorption maximum (in ClC(Cl)Cl): 415 nm | absorption maximum (in ClCCl): 412 nm

O=[N+]([O-])c1cccc(O)c1
absorption maximum (in CO): 329 nm | absorption maximum (in O): 328 nm

CN(C)c1ccc2c(-c3ccc(N)cc3C(=O)[O-])c3ccc(=[N+](C)C)cc-3oc2c1
absorption maximum (in CCO): 533 nm | absorption maximum (in O): 544 nm

C(=C\c1cnccn1)/c1ccc(N(c2ccccc2)c2ccccc2)cc1
absorption maximum (in C1CCOC1): 393 nm | absorption maximum (in CC#N): 391 nm | absorption maximum (in CS(C)=O): 400 nm | absorption maximum (in ClCCl): 394 nm

c1ccc2c(c1)ccc1oc3ccc4cc5oc6ccc7ccc8oc9ccc%10ccccc%10c9c8c7c6c5cc4c3c12
absorption maximum (in CC#N): 352 nm

CCCCc1cc(-c2cccc(COC)c2)oc1-c1cccc(-c2cc(CCCC)c(-c3cccc(-c4cc(CCCC)c(-c5cccc(-c6oc(-c7cccc(-c8oc(-c9cccc(-c%10oc(-c%11cccc(COC)c%11)cc%10CCCC)c9)cc8CCCC)c7)cc6CCCC)c5)o4)c3)o2)c1
absorption maximum (in ClC(Cl)Cl): 337 nm

O=C1OC(=O)[C@H]2[C@@H]1[C@@H]1C[C@H]2c2c1c(-c1ccccc1)c1ccccc1c2-c1ccccc1
absorption maximum (in ClC(Cl)Cl): 295 nm

N#Cc1ccc(-c2cc(-c3ccc(N4CCCC4)cc3)nc(-c3ccccc3)n2)cc1
absorption maximum (in ClC(Cl)Cl): 385 nm

O=CN1N=C(c2ccc(Br)cc2)C[C@@H]1c1ccccc1
absorption maximum (in C1CCCCC1): 305 nm | absorption maximum (in C1COCCO1): 303 nm | absorption maximum (in CC#N): 298 nm | absorption maximum (in CCO): 297 nm | absorption maximum (in CCOC(C)=O): 301 nm | absorption maximum (in CO): 298 nm | absorption maximum (in CS(C)=O): 302 nm | absorption maximum (in Cc1ccccc1): 306 nm | absorption maximum (in ClC(Cl)(Cl)Cl): 306 nm

CN1/C(=C/C=C(/C=C/c2sc3ccccc3[n+]2C)c2cc(F)cc(F)c2)Sc2ccccc21
absorption maximum (in CCO): 644 nm | absorption maximum (in CO): 641 nm | absorption maximum (in CS(C)=O): 651 nm | absorption maximum (in O): 638 nm

CCOC(=O)c1cc2ccc3ccccc3c2c(C(=O)OCC)c1N
absorption maximum (in Cc1ccccc1): 427 nm

COc1ccc(-n2c(-c3ccc(-c4cncc5ccccc45)cc3)nc3c4ccccc4c4ccccc4c32)cc1
absorption maximum (in C1CCOC1): 365 nm

CN(C)c1ccc2[c](c1)[Ge]([CH3])([CH3])[C]1=CC(=[N+](C)C)C=CC1=C2
absorption maximum (in O): 621 nm

CC1=N/C(=C\c2ccccc2N(C)C)C(=O)N1C
absorption maximum (in C1CCCCC1): 395 nm | absorption maximum (in C1CCOC1): 395 nm | absorption maximum (in CC#N): 396 nm | absorption maximum (in CO): 398 nm | absorption maximum (in CS(C)=O): 398 nm | absorption maximum (in ClCCl): 396 nm | absorption maximum (in O): 346 nm
